Patent publication US8222296B2, “Conjugates comprising a GABA- or glycine compound, pharmaceutical compositions and combinations thereof and their use in treating CNS disorders” (Ramot at Tel-Aviv University Ltd., priority 2006, dated 2012)
Counter-ions that a name gives are not always drawn.

Legend:
[1] = Stability of BIL-1022 in water and methanol; format: physicochemical; conditions: low pH (3-5), room temperature (20-25° C.)
Experimental: The stability of BIL-1022 was briefly studied. BIL-1022 is stable in water and methanol at low pH (3-5) at room temperature (20-25° C.).

[2] = Water content (Karl-Fisher titration) after sitting uncapped on the bench overnight; format: physicochemical; conditions: 0.15% vs. 0.16%
Experimental: Water content was measured using Karl-fisher titration.

Structure (SMILES): CC(=O)Nc1ccc(OC(=O)CCCN)cc1 [BIL-1022, 4-acetamidophenyl 4-aminobutanoate hydrochloride]
- stability in water and methanol [1]: stable
- water content of the product upon sitting in vial (uncapped) on the bench overnight [2]: remained substantially unchanged
